Data set [1] in a line: Plasma concentration of mometasone furoate after drug coated balloon delivery to ovine maxillary sinus. In kind it is in vivo. Conditions: other: drug coated balloon expanded in the maxillary sinus, sheep, read-out: MF Plasma Concentration. As for the experimental part:
(§1) A 30 mm 80A Pellethane® compliant balloon was cleaned with 70% isopropanol and dried in an oven. The balloon was then treated with oxygen plasma and immediately spray coated with a mometasone furoate formulation listed in Table 1. Post-spray pass drying was conducted with nitrogen gas. Next, the drug coated balloon was treated by solvent vapor annealing (i.e., exposed to a solvent vapor) in a sealed chamber saturated with ethanol for four hours at room temperature. After solvent vapor annealing, the balloon was re-folded and heat set using a custom pleating machine. The coated balloon was then sheathed and packaged under nitrogen gas and sterilized by electron beam irradiation.
(§2) A drug coated balloon made using the process described in Example 3 was advanced to a sheep maxillary sinus using a rigid 4 mm endoscope and expanded for 5 minutes, and then deflated and removed from the nostril. After 7 days the animal was sacrificed and tissue samples obtained from the maxillary sinus and surrounding tissues. […] Plasma concentration of mometasone furoate was also measured over 7 days. Referring to Table 3 below and FIG. 3, mometasone furoate (MF) plasma concentration was low and found to decrease over the 7 day period from an initially low value. […] Low systemic exposure generally lowers the risk of a patient experiencing side effects from the delivered drug.

A short description of data set [2]: Drug uptake into sinus tissue after drug coated balloon delivery, ovine model (HPLC of tissue samples). It counts as in vivo. Conditions: other: drug coated balloon expanded in the maxillary sinus, sheep, Example 3 balloon (solvent vapor annealed coating) expanded 5 minutes in maxillary sinus, tissue sampled after 7 days. The procedure:
as §1, §2

Read-outs that look alike come from different tables or passages of the source. Where only a bound is given, the exact number is not on record here.

For the compound `C[C@@H]1C[C@H]2[C@@H]3CCC4=CC(=O)C=C[C@]4(C)[C@@]3(Cl)[C@@H](O)C[C@]2(C)[C@@]1(OC(=O)c1ccco1)C(=O)CCl` [mometasone furoate], in data set [1] (day 0 after Example 3 balloon delivery to maxillary sinus), the concentration at 0 day is 0.3 ng/mL. Besides, the concentration at 1 day in data set [1] (day 1 after Example 3 balloon delivery to maxillary sinus) was 0.3 ng/mL. Moreover, the concentration at 4 day in data set [1] (day 4 after Example 3 balloon delivery to maxillary sinus) was 0.05 ng/mL. Also, in data set [1] (day 7 after Example 3 balloon delivery to maxillary sinus), the concentration at 7 day was below 0.01 ng/mL. In addition, the concentration at 7 days in data set [2] (read-out: mometasone furoate concentration in maxillary sinus tissue) was 146 ng/g; in data set [2] (tissues surrounding the maxillary sinus, read-out: mometasone furoate concentration in tissues surrounding the maxillary sinus) it was 55 ng/g.
